Values after ≈ are worked out from the molar mass of the structure shown.
What was measured:
Enterococcus sp. = assay: in vitro antibacterial evaluation, MIC by broth dilution; format: cell-based; conditions: broth dilution, 18 hours at 35° C.
In short: (§1)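 Read-out: the lowest concentration at which the test strain fails to grow. Serial dilutions (64-0.06 μg/mL) in Muller-Hinton II […], 5×10^5 CFU/mL inoculum, NCCLS M7-A2 procedure.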

Escherichia coli = assay: as above; format: cell-based; conditions: 18 hours at 35° C.
In short: as §1

Staphylococcus sp. = assay: as above; format: cell-based; conditions: broth dilution, 18 hours at 35° C.
In short: as §1

Streptococcus sp. = assay: as above; format: cell-based; conditions: broth dilution, 18 hours at 35° C.
In short: as §1

[1] = system: Enterococcus faecalis (GC 6189); assay: acute lethal infection in mice; format: in vivo; conditions: female CD-1 mice, intraperitoneal challenge, intravenous 30 min. after infection, 7 day survival
In short: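 Intraperitoneal challenge of female CD-1 mice with a bacterial dose lethal to untreated animals within 24-48 hr; single iv treatment 30 min later, 5 mice per dose level. Survival is scored at day 7 and pooled from three experiments to give the median effective dose.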

CC(c1ccccc1)C1NC(=O)CNC(=O)C(CO)NC(=O)C(C(O)C2CNC(=N)N2C2OC(CO)C(O)C(O)C2O)NC(=O)C(C(O)C2CNC(=N)N2)NC(=O)C(Cc2ccc(OC3OC(CO)C(OC4OC5COC(C6CCCC6)OC5C(O)C4O)C(O)C3O)cc2)NC1=O (stereo not drawn) [Example 117, Cyclo[glycyl-β-methylphenylalanyl-O-[4-O-[4,6-O-(cyclopentylmethylene)hexopyranosyl]-hexopyranosyl]tyrosyl-3-(2-iminoiniidazolidin-4-yl)seryl-3-(3-hexopyranosyl-2-iminoimidazolidin-4-yl)serylseryl]]
MIC Enterococcus avium (GC 4558) (Enterococcus sp.; Enterococcus avium (GC 4558)): 4 µg/mL (≈ 2.91 µM)
MIC Enterococcus faecalis (ATCC 29212) (Enterococcus sp.; Enterococcus faecalis (ATCC 29212)): 2 µg/mL (≈ 1.45 µM)
MIC Enterococcus faecalis (GC 2242) (Enterococcus sp.; Enterococcus faecalis (GC 2242)): 2 µg/mL (≈ 1.45 µM)
MIC Enterococcus faecalis (GC 2691) (Enterococcus sp.; Enterococcus faecalis (GC 2691)): 4 µg/mL (≈ 2.91 µM)
MIC Enterococcus faecalis (GC 3059) (Enterococcus sp.; Enterococcus faecalis (GC 3059)): 4 µg/mL (≈ 2.91 µM)
MIC Enterococcus faecalis (GC 4552) (Enterococcus sp.; Enterococcus faecalis (GC 4552)): 4 µg/mL (≈ 2.91 µM)
MIC Enterococcus faecalis (GC 4553) (Enterococcus sp.; Enterococcus faecalis (GC 4553)): 4 µg/mL (≈ 2.91 µM)
MIC Enterococcus faecalis (GC 4554) (Enterococcus sp.; Enterococcus faecalis (GC 4554)): 2 µg/mL (≈ 1.45 µM)
MIC Enterococcus faecalis (GC 6189) (Enterococcus sp.; Enterococcus faecalis (GC 6189)): 2 µg/mL (≈ 1.45 µM)
MIC Enterococcus faecium (GC 2243) (Enterococcus sp.; Enterococcus faecium (GC 2243)): 2 µg/mL (≈ 1.45 µM)
MIC Enterococcus faecium (GC 4556) (Enterococcus sp.; Enterococcus faecium (GC 4556)): 2 µg/mL (≈ 1.45 µM)
MIC Enterococcus faecium (GC 4557) (Enterococcus sp.; Enterococcus faecium (GC 4557)): 2 µg/mL (≈ 1.45 µM)
MIC Enterococcus faecalis (ATCC 29212) (Enterococcus sp.; strain ATCC 29212): 2 µg/mL (≈ 1.45 µM)
MIC Enterococcus faecalis (GC 2242) (Enterococcus sp.; strain GC 2242): 2 µg/mL (≈ 1.45 µM)
MIC Enterococcus faecium (GC 2243) (Enterococcus sp.; strain GC 2243): 2 µg/mL (≈ 1.45 µM)
MIC Enterococcus faecalis (GC 2691) (Enterococcus sp.; strain GC 2691): 4 µg/mL (≈ 2.91 µM)
MIC Enterococcus faecalis (GC 3059) (Enterococcus sp.; strain GC 3059): 4 µg/mL (≈ 2.91 µM)
MIC Enterococcus faecalis (GC 4552) (Enterococcus sp.; strain GC 4552): 4 µg/mL (≈ 2.91 µM)
MIC Enterococcus faecalis (GC 4553) (Enterococcus sp.; strain GC 4553): 4 µg/mL (≈ 2.91 µM)
MIC Enterococcus faecalis (GC 4554) (Enterococcus sp.; strain GC 4554): 2 µg/mL (≈ 1.45 µM)
MIC Enterococcus faecium (GC 4556) (Enterococcus sp.; strain GC 4556): 2 µg/mL (≈ 1.45 µM)
MIC Enterococcus faecium (GC 4557) (Enterococcus sp.; strain GC 4557): 2 µg/mL (≈ 1.45 µM)
MIC Enterococcus avium (GC 4558) (Enterococcus sp.; strain GC 4558): 4 µg/mL (≈ 2.91 µM)
MIC Enterococcus faecalis (GC 6189) (Enterococcus sp.; strain GC 6189): 2 µg/mL (≈ 1.45 µM)
MIC Escherichia coli (ATCC 25922) (Escherichia coli; strain ATCC 25922): 64 µg/mL (≈ 46.5 µM)
MIC Escherichia coli (GC 4559) (Escherichia coli; strain GC 4559): 32 µg/mL (≈ 23.3 µM)
MIC Escherichia coli (GC 4560) (Escherichia coli; strain GC 4560): 1 µg/mL (≈ 0.727 µM)
MIC Coagulase Negative Staphylococcus (GC 4547) (Staphylococcus sp.): 1 µg/mL (≈ 0.727 µM)
MIC Coagulase Negative Staphylococcus (GC 4548) (Staphylococcus sp.): 1 µg/mL (≈ 0.727 µM)
MIC Coagulase Negative Staphylococcus (GC 4549) (Staphylococcus sp.): 1 µg/mL (≈ 0.727 µM)
MIC Coagulase Negative Staphylococcus (GC 4551) (Staphylococcus sp.): 2 µg/mL (≈ 1.45 µM)
MIC Coagulase Negative Staphylococcus (GC 6257) (Staphylococcus sp.): 0.5 µg/mL (≈ 0.364 µM)
MIC Staphylococcus aureus (ATCC 29213) (Staphylococcus sp.): 1 µg/mL (≈ 0.727 µM)
MIC Staphylococcus aureus (GC 1131) (Staphylococcus sp.): 2 µg/mL (≈ 1.45 µM)
MIC Staphylococcus aureus (GC 3051) (Staphylococcus sp.): 1 µg/mL (≈ 0.727 µM)
MIC Staphylococcus aureus (GC 3053) (Staphylococcus sp.): 2 µg/mL (≈ 1.45 µM)
MIC Staphylococcus aureus (GC 4541) (Staphylococcus sp.): 1 µg/mL (≈ 0.727 µM)
MIC Staphylococcus aureus (GC 4542) (Staphylococcus sp.): 1 µg/mL (≈ 0.727 µM)
MIC Staphylococcus aureus (GC 4544) (Staphylococcus sp.): 2 µg/mL (≈ 1.45 µM)
MIC Staphylococcus aureus (GC 4545) (Staphylococcus sp.): 1 µg/mL (≈ 0.727 µM)
MIC Staphylococcus aureus-SMITH (GC 4543) (Staphylococcus sp.): 1 µg/mL (≈ 0.727 µM)
MIC Staphylococcus haemolyticus (GC 4546) (Staphylococcus sp.): 1 µg/mL (≈ 0.727 µM)
MIC Staphylococcus aureus (GC 1131) (Staphylococcus sp.; inoculum 5×10^5 CFU/mL, strain GC 1131): 2 µg/mL (≈ 1.45 µM)
MIC Staphylococcus aureus (ATCC 29213) (Staphylococcus sp.; strain ATCC 29213): 1 µg/mL (≈ 0.727 µM)
MIC Staphylococcus aureus (GC 3051) (Staphylococcus sp.; strain GC 3051): 1 µg/mL (≈ 0.727 µM)
MIC Staphylococcus aureus (GC 3053) (Staphylococcus sp.; strain GC 3053): 2 µg/mL (≈ 1.45 µM)
MIC Staphylococcus aureus (GC 4541) (Staphylococcus sp.; strain GC 4541): 1 µg/mL (≈ 0.727 µM)
MIC Staphylococcus aureus (GC 4542) (Staphylococcus sp.; strain GC 4542): 1 µg/mL (≈ 0.727 µM)
MIC Staphylococcus aureus (GC 4544) (Staphylococcus sp.; strain GC 4544): 2 µg/mL (≈ 1.45 µM)
MIC Staphylococcus aureus (GC 4545) (Staphylococcus sp.; strain GC 4545): 1 µg/mL (≈ 0.727 µM)
MIC Staphylococcus haemolyticus (GC 4546) (Staphylococcus sp.; strain GC 4546): 1 µg/mL (≈ 0.727 µM)
MIC Coagulase Negative Staphylococcus (GC 4547) (Staphylococcus sp.; strain GC 4547): 1 µg/mL (≈ 0.727 µM)
MIC Coagulase Negative Staphylococcus (GC 4548) (Staphylococcus sp.; strain GC 4548): 1 µg/mL (≈ 0.727 µM)
MIC Coagulase Negative Staphylococcus (GC 4549) (Staphylococcus sp.; strain GC 4549): 1 µg/mL (≈ 0.727 µM)
MIC Coagulase Negative Staphylococcus (GC 4551) (Staphylococcus sp.; strain GC 4551): 2 µg/mL (≈ 1.45 µM)
MIC Coagulase Negative Staphylococcus (GC 6257) (Staphylococcus sp.; strain GC 6257): 0.5 µg/mL (≈ 0.364 µM)
MIC Staphylococcus aureus-SMITH (GC 4543) (Staphylococcus sp.; strain SMITH GC 4543): 1 µg/mL (≈ 0.727 µM)
MIC Streptococcus agalactiae (GC 4564) (Streptococcus sp.; Streptococcus agalactiae (GC 4564)): 0.25 µg/mL (≈ 0.182 µM)
MIC Streptococcus pneumoniae (ATCC 6301) (Streptococcus sp.; Streptococcus pneumoniae (ATCC 6301)): <0.06 µg/mL
MIC Streptococcus pneumoniae (GC 1894) (Streptococcus sp.; Streptococcus pneumoniae (GC 1894)): <0.06 µg/mL
MIC Streptococcus pneumoniae (GC 4565) (Streptococcus sp.; Streptococcus pneumoniae (GC 4565)): 0.12 µg/mL (≈ 0.0872 µM)
MIC Streptococcus pyogenes (GC 4563) (Streptococcus sp.; Streptococcus pyogenes (GC 4563)): 0.25 µg/mL (≈ 0.182 µM)
MIC Streptococcus pneumoniae (ATCC 6301) (Streptococcus sp.; strain ATCC 6301): <0.06 µg/mL
MIC Streptococcus pneumoniae (GC 1894) (Streptococcus sp.; strain GC 1894): <0.06 µg/mL
MIC Streptococcus pyogenes (GC 4563) (Streptococcus sp.; strain GC 4563): 0.25 µg/mL (≈ 0.182 µM)
MIC Streptococcus agalactiae (GC 4564) (Streptococcus sp.; strain GC 4564): 0.25 µg/mL (≈ 0.182 µM)
MIC Streptococcus pneumoniae (GC 4565) (Streptococcus sp.; strain GC 4565): 0.12 µg/mL (≈ 0.0872 µM)
median effective dose (ED50), Enterococcus faecalis (GC 6189) [1]: 0.38 mg/kg

Source: patent publication US6914045B2, “Glycopeptide antibiotics” (Wyeth Holdings Corporation, priority 2001, dated 2005)
